Measurements published in PubChem BioAssay (NCI).
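Exposure lasted 48 hours, with cells grown in 96-well plates and compounds tested at five concentrations. GI50: concentration for 50% inhibition of growth. TGI denotes the concentration required for complete inhibition of growth.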

How the values were obtained:
Assay in all cases: growth of human tumour cells (NCI), 48 h
DU-145 prostate = system: DU-145 prostate
HCC-2998 colon = system: HCC-2998 colon
HCT-15 colon = system: HCT-15 colon
HL-60(TB) leukemia = system: HL-60(TB) leukemia
K-562 leukemia = system: K-562 leukemia
NCI-H522 lung = system: NCI-H522 lung
SF-295 CNS = system: SF-295 CNS
SN12C renal = system: SN12C renal
UACC-62 melanoma = system: UACC-62 melanoma
UO-31 renal = system: UO-31 renal

Structure (SMILES)	GI50 (DU-145 prostate) [nM]	TGI (DU-145 prostate) [µM]	GI50 (HCC-2998 colon) [nM]	TGI (HCC-2998 colon) [µM]	GI50 (HCT-15 colon) [nM]	TGI (HCT-15 colon) [µM]	GI50 (HL-60(TB) leukemia) [nM]	TGI (HL-60(TB) leukemia) [µM]	GI50 (K-562 leukemia) [nM]	TGI (K-562 leukemia) [µM]	GI50 (NCI-H522 lung) [nM]	TGI (NCI-H522 lung) [µM]	GI50 (SF-295 CNS) [µM]	GI50 (SN12C renal) [nM]	TGI (SN12C renal) [µM]	GI50 (UACC-62 melanoma) [nM]	TGI (UACC-62 melanoma) [µM]	GI50 (UO-31 renal) [nM]	TGI (UO-31 renal) [µM]	TGI (SF-295 CNS) [µM]
C[C@@H]1CC[C@H]2C(COC/C=C/COCC3=C(C(F)(F)F)O[C@@H]4O[C@@]5(C)CC[C@H]6[C@H](C)CC[C@@H]3[C@@]46OO5)=C(C(F)(F)F)O[C@@H]3O[C@@]4(C)CC[C@@H]1[C@]32OO4	531	> 100	472	> 100	38	14.2	< 10	0.0468	< 11.6	> 47	327	> 100	< 0.0244	19.1	0.685	78.1	> 100	786	> 100	–
CC(C)(C)C1CCC2(CC1)CCN(CCCN1CCOCC1)CC2	–	> 100	–	35.4	–	> 57.9	–	41.8	–	30.5	–	> 71.3	–	–	> 100	–	25	–	> 100	> 61.7
Cn1cnc([N+](=O)[O-])c1SCC(=O)O	–	> 100	–	> 100	–	> 100	–	> 100	–	> 100	–	> 100	–	–	> 100	–	> 100	–	> 100	> 100
COc1cc2ccc1-c1cc(ccc1O)CC1c3cc4c(cc3CCN1C)Oc1c(OC)cc3c(c1O4)C(C2)N(C)CC3 (centres undefined)	–	–	–	3.06	–	3.12	–	4.53	–	3.27	–	3.2	–	–	3.96	–	3.44	–	3.27	3.33
CC(C)CNc1nc(N)[nH]c(=O)c1NC=O	–	> 100	–	> 100	–	> 100	–	> 100	–	> 100	–	> 100	–	–	> 100	–	> 100	–	> 100	> 100
O=C(c1cc(Br)ccc1O)c1cc(Br)ccc1O	–	29.2	–	33.2	–	38.5	–	44.1	–	33.5	–	33	–	–	32.6	–	25.8	–	27.4	33.7
Oc1cc(O)cc(/C=C/c2ccc(O)c(O)c2)c1	–	–	–	34.4	–	> 100	–	> 28.4	–	> 58.9	–	7.17	–	–	40.8	–	15	–	39.3	60
O=C(O)c1ccccn1	–	–	–	–	–	> 100	–	–	–	> 100	–	–	–	–	> 100	–	> 100	–	> 100	> 100
CN(C)c1ccc(C2CC(=O)C(C#N)=C(c3ccccc3)NN2C)cc1 (centres undefined)	–	–	–	> 100	–	32.5	–	19.9	–	–	–	28.5	–	–	> 100	–	–	–	–	> 100
CN(C)[C@@H]1C(=O)C(C(=O)NCNCCCC(=O)O)=C(O)[C@@]2(O)C(=O)C3=C(O)c4c(O)cccc4[C@@](C)(O)[C@H]3C[C@@H]12	–	–	–	> 100	–	> 100	–	> 100	–	> 100	–	> 100	–	–	> 100	–	> 100	–	> 100	> 100
N=C(N)c1ccc(-c2ccc(-c3ccc(Cl)cn3)s2)cc1	1780	3.34	–	–	1610	3.08	–	–	–	–	–	–	–	–	–	1840	3.38	1680	3.07	–
CN(C)c1ccc2nc3c(C(=O)O)cc(=O)c(O)c-3oc2c1	–	> 100	–	–	–	> 100	–	72.3	–	74.8	–	31.9	–	–	64.6	–	46	–	80.1	> 100
Cc1ccc(C)c(/C(=N\N=C(N)N)C2CC2)c1	–	> 100	–	35.4	–	> 100	–	–	–	69.6	–	> 100	–	–	> 100	–	> 100	–	> 100	> 100
c1ccc2c[n+](CCCCCCCCCC[n+]3ccc4ccccc4c3)ccc2c1	–	> 10	–	> 10	–	> 10	–	> 10	–	> 10	–	> 10	–	–	> 8.94	–	> 10	–	> 10	> 10
CCN(CC)Cc1ccc2cccnc2c1O	–	> 100	–	59.7	–	18.5	–	75	–	> 100	–	3.28	–	–	47.2	–	> 100	–	> 100	51.2
NCS(=O)(=O)O	–	> 100	–	> 100	–	> 100	–	> 100	–	> 100	–	> 100	–	–	> 100	–	> 100	–	> 100	> 100
Cc1c2ccnc(-c3ccccc3)c2cc2c1[nH]c1ccccc12	–	–	–	13.2	–	9.62	–	5.35	–	5.38	–	27.7	–	–	7	–	5.48	–	4.29	5.45
Cc1ncc(CO)c(CN)c1O	–	> 100	–	> 100	–	> 100	–	> 100	–	> 100	–	> 100	–	–	> 100	–	> 100	–	> 100	> 100
COc1ccc(CNc2nc(NCc3ccc(OC)cc3)nc(NC(C)C)n2)cc1	–	66	–	64.8	–	> 100	–	17.7	–	> 100	–	10.6	–	–	–	–	31.1	–	> 100	> 100
O=C(CC1(O)C(=O)Nc2ccc(Br)cc21)c1ccc(C(=O)NCC2CCC3(CC2)OOC2(CCCCC2)OO3)cc1 (centres undefined)	8770	39.6	12700	37.6	4590	34.3	–	–	–	–	336	1.37	7.1	10400	34.9	5770	29.2	–	–	35
CC[C@H](Nc1nc(N)nc(N)c1Cl)c1nc2cccc(NCc3ccc(C(=O)NO)cc3)c2c(=O)n1-c1ccccc1	2910	10.5	1620	3.22	2020	4.75	–	–	1780	> 100	1290	3.6	–	1780	4.78	1410	2.81	–	–	–
COc1cnc2c(c1)C(=O)c1c-2n(CCCN2CCNCC2)c(=O)c2cc(Cl)ccc12	242	1.2	–	–	–	–	–	–	–	–	–	–	–	–	–	–	–	1030	2.41	–
CCOC(=O)c1c2c(c(O)c3ccccc3c(O)n(-c3ccc(C)cc3)c1C)C(=O)C=CC2=O	–	91	–	36.9	–	34.7	–	51.4	–	47.2	–	41.7	–	–	58.9	–	71.7	–	> 100	37
